pIC50: −log10 of the molar value.
Experiments:
[1] = target: T1, SRC kinase (Gallus gallus, UniProt P00523, Y527F); test: Src kinase activity assay (immunoprecipitate from src-transformed NIH 3T3 cells); format: biochemical, chicken; conditions: read-out: IC50 (50% inhibition of phosphorylation) SRC kinase
T1 construct: expressed in transfected cells; host or cells: NIH 3T3, stably transfected (gift of S. Courtneidge, Heidelberg)
Procedure: Src kinase activity assay: src-transformed NIH 3T3 cells were grown in 24-well plates to confluency; rinsed twice with a solution containing 20 mM Tris, 0.1 mM sodium-o-vanadate, and 150 mM NaCl (pH 7.5); and lysed in 100 μl/well of lysis buffer containing 20 mM Tris (pH 8.0), 150 mM NaCl, 1% Nonidet P-40, 2.5 mM EDTA, 10 mM NaF, 1% trasylol, and 20 μm leupeptin. The lysate was clarified by centrifugation and subjected to immunoprecipitation with the anti-Src monoclonal antibody MAb 327 (Oncogene Science; 0.5 μg antibody/80 μg protein) for 1 hour at 4° C. Then, goat anti-mouse IgG (Sigma; 0.2 μg per 0.5 μg monoclonal antibody 327) was added and incubation was continued for 30 mi followed by another 40 min of incubation with 10 μl of protein A-Sepharose Cl-4B (Pharmacia). The immunoprecipitates were washed five times with the lysis buffer and twice with kinase buffer containing 40 mM Hepes (pH 7.4), 0.5 mM dithiothreitol, 5 mM MnCl2, and 0.1 mM sodium-o-vanadate. The immunoprecipitates were suspended in kinase buffer and aliquots corresponding to 40 μg of cell lysate protein were preincubated with or without tyrphostin for 15 min at 30° C. Then, the kinase reaction was performed in the presence of 2 μg of acid-treated enolase and 10 μCi of [γ-^32 P]ATP (2 μM) in a final volume of 30 μl. The reaction was terminated by addition of SDS-PAGE sample buffer (6% SDS, 30% β-mercaptoetlhanol, 40% glycerol, and 0.5 mg/ml bromophenol blue) and the incorporation of radioactivity in the enolase was analyzed by SDS-PAGE and autoradiography as well as Phosphor-Imager quantification.

[2] = system: porcine endothelial cells (EC); test: Inhibition of cell proliferation and recovery, porcine EC; format: cell-based; conditions: Sus scrofa, Endothelial cell; FIG. 8 experiment; 10 μM; read-out: maximal inhibitory effect on porcine EC proliferation
From the text: Endothelial cells (EC) were isolated from porcine carotid arteries. Using aseptic procedure, both common carotid arteries were isolated, and the distal end of each artery was cannulated through an arteriotomy and ligated. The arteries were then perfused with phosphate buffered saline (PBS) and the proximal end ligated isolating a 5-7 cm long blood-free portion of the artery. The isolated portion of each artery was filled with PBS containing calcium and magnesium and 0.1% collagenase (Boehringer Manneheim, Germany). The segments were excised and incubated for 10 min at 37° C. in sterile bottles containing PBS. […] Cells were seeded on fibronectin-coated dishes at a seeding density of 15,000 cells/well and incubated at 37° C. in 9% CO2. ECGS (25 μg/ml) was added every other day until confluence was observed, typically within 6-8 days.
Inhibition of cell proliferation and recovery: Monolayer cell growth inhibition and recovery experiments were repeated 3 or 4 times. Each experiment was performed in triplicate. […] Cultures were treated with a tyrphostin (10 μM) dissolved in 0.1% DMSO on days 1 and 3. On day 6, cultures were washed and the cells allowed to recover. Typically cells were counted on days 3 and 5 for inhibition, and on days 7, 10 and 15 for recovery, other schedules were also employed as reported below.

[3] = system: human internal mammary artery smooth muscle cells (IMA SMC); test: Inhibition of cell proliferation and recovery, human IMA SMC; format: cell-based
From the text: Smooth muscle cells (SMC) were obtained under aseptic conditions from porcine abdominal aortas, and human internal mammary arteries (IMA). Specimens from the operating room were transferred on ice to the tissue culture room. Each artery was cut open and the endothelial surface mechanically scraped. The vessels were then cut into 2 mm^2 fragments which were placed in culture dishes with Dulbecco's modified Eagle's medium (DMEM) supplemented with 15% (v/v) fetal calf serum (FCS), 100 u/ml penicillin, 100 μg/ml streptomycin, and […] L-glutamine. The tissue fragments were then placed in an incubator at 37° C. under 9% CO2 atmosphere until SMC outgrowth was detected (typically within 3-7 days). […] For experiments testing the effect of tyrphostins on growth inhibition and recovery (see below), SMC from passages 1-3 were replated in 15 mm wells pretreated with 3 μg/cm^2 fibronectin (Biological Industries, Kibbutz Beit Haemek, Israel) at 15,000 cells/well.
Inhibition of cell proliferation and recovery: Monolayer cell growth inhibition and recovery experiments were repeated 3 or 4 times. Each experiment was performed in triplicate. Approximately 15,000 cells (SMC or EC) in 1 ml of culture medium supplemented with 15% FCS were seeded on day 0 in 15 mm-wells precoated with fibronectin. Cultures were treated with a tyrphostin (10 μM) dissolved in 0.1% DMSO on days 1 and 3. On day 6, cultures were washed and the cells allowed to recover. Typically cells were counted on days 3 and 5 for inhibition, and on days 7, 10 and 15 for recovery, other schedules were also employed as reported below. The medium supplemented with serum (M-199 with ECGS for EC, and DMEM for SMC) was changed every other day throughout the experiment.
FIG. 9 presents the maximal inhibitory and recovery effects on human IMA SMC growth inflicted by 10 or 25 μM of AG1851 and AG1295. Cells were grown in the presence of the specified tyrphostins and were counted after seven days in culture. On day 7 the cultures were washed and the cells allowed to recover. Seven days later they were counted for recovery. The bar graph show the maximal inhibition and the recovery in each experiment and for controls.

SMILES	pIC50 [1]	inhibition at 10 µM [2] [%]	reversibility of the effect on IMA SMC upon removal of the tyrphostin ([3]; 25 μM)	inhibition at 25 µM ([3]; Homo sapiens, 120 h, read-out: mean reduction / inhibition of IMA SMC proliferation compared to untreated or DMSO-treated cells) [%]
Cc1nc2cc3nc(-c4cccs4)cnc3cc2n1C [AG1992]	< 4.52	52	–	–
Cc1nc2cc3nc(-c4ccccc4)cnc3cc2n1C [AG1851]	< 4.52	–	completely reversible	54
